The values that follow come from US10640495B2, “Heterocycle derivatives having TrkA inhibitory activity” (Shionogi & Co., Ltd., priority 2015, dated 2020).

One data set has as its target human TrkA (Homo sapiens (Human), UniProt P04629). Kind of data set: Human TrkA inhibition assay (Test Example 2). It is filed as biochemical. The method in brief:
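Recombinant TrkA (1 nmol/L) was preincubated 15 min at room temperature with compound in HEPES/MgCl2/DTT buffer, then reacted with FL-peptide 27 (1.5 μmol/L) and ATP (500 μmol/L) for 120 min at 37 °C. After EDTA stop, substrate phosphorylation was read by microfluidic mobility shift. IC50 came from logistic regression over 3-fold dilution series.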

A short description of data set [1]: Clearance test, intravenous administration in SD rats (Test Example 7). It is filed as in vivo. Conditions: rat, plasma, intravenous administration 0.5 mg/kg or 1 μmol/kg, read-out: Total Clearance (CLtot). On the procedure: Materials and Methods for Experiments • (1) Experimental animals: SD rats were used. • (2) Rearing condition: SD rats were allowed free access to solid feed and sterilized tap water. • (3) Setting of dosage and grouping: Intravenous administration was performed with the predetermined dosage. Grouping was set as below. (Dosage is changed per compound) Intravenous administration 0.5 mg/kg or 1 μmol/kg (n=2) • (4) Preparation of administration solutions: Administration was performed after solubilization by using dimethylacetamide/propylene glycol=1/1 or dimethyl sulfoxide/propylene glycol=1/1 as the solvent. • (5) Routes of administration: Intravenous administration was performed from caudal vein by syringes with needle. • (6) Evaluation items: Blood was collected serially and concentration of a compound of the present invention in plasma was measured by LC/MS/MS. • (7) Statistical analysis: About transition of concentration of a compound of the present invention in plasma, Total Clearance (CLtot) of a compound of the present invention was calculated by non-linear least-squares method program, WinNonlin (a registered trademark).

Another data set addresses hERG channel (IKr) (Homo sapiens (Human), UniProt Q12809). Kind of data set: hERG test, whole cell patch clamp IKr in CHO cells (Test Example 3). It is filed as cell-based. To be noted: pH 7.4, at of test compound (so in the source), CHO cells expressing hERG channel, read-out: % inhibition of tail peak current (IKr). From the text: For the purpose of assessing risk of an electrocardiogram QT interval prolongation of the compound of the present invention, effects of the compound of the present invention on delayed rectifier K^+ current (IKr), which plays an important role in the ventricular repolarization process, was studied using CHO cells expressing human ether-a-go-go related gene (hERG) channel.
After a cell was retained at a membrane potential of −80 mV by whole cell patch clamp method using an automated patch clamp system (QPatch; Sophion Bioscience A/S) and gave a leak potential of −50 mV, IKr induced by depolarization pulse stimulation at +20 mV for 2 seconds, and further, repolarization pulse stimulation at −50 mV for 2 seconds, was recorded. A vehicle, which is the 0.1-0.3% dimethyle sulfoxide solution in extracellular solution (NaCl: 145 mmol/L, KCl: 4 mmol/L, CaCl2: 2 mmol/L, MgCl2: 1 mmol/L, glucose: 10 mmol/L, HEPES (4-(2-hydroxyethyl)-1-piperazineethanesulfonic acid): 10 mmol/L, pH7.4), or the compound of the present invention had been dissolved at an objective concentration in the extracellular solution is applied to the cell at room temperature for 7 minutes or more. From the recording IKr, an absolute value of the tail peak current was measured based on the current value at the resting membrane potential using analysis software (QPatch assay software; Sophion Bioscience A/S). Further, the % inhibition of tail peak current for the compound of the present invention relative to the tail peak current after application of the vehicle is calculated to assess influence of the compound of the present invention on IKr.
(Result) % inhibition was shown at […] of test compound.

The mark [2] stands for this setting: human TrkA 1 nmol/L, ATP 500 μmol/L, 120 min at 37° C., read-out: IC50 values (TrkA phosphorylation inhibition).
Setting [3] is: Table 152, human TrkA inhibition, read-out: IC50_nM.
The mark [4] stands for this setting: Table 153, human TrkA inhibition, read-out: IC50.
Where [5] appears, read: Table 155, human TrkA inhibition, read-out: IC50.
The mark [6] stands for this setting: Table 154, human TrkA inhibition, read-out: IC50.

pIC50: −log10 of the molar value. Like-named read-outs stand apart in the source and are kept apart here. Some results are limits rather than exact numbers.

human TrkA, sequence (P04629 440-796): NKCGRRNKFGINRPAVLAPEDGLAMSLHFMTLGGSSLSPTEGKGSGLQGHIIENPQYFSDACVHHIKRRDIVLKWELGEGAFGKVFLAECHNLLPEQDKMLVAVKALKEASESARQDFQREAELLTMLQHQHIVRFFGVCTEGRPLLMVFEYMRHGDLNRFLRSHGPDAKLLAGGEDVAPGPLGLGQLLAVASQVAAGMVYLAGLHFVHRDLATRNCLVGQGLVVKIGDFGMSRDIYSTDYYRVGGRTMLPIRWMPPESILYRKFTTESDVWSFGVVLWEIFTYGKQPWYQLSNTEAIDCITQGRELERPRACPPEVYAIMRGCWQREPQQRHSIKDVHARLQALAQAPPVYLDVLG
hERG channel (IKr), sequence (Q12809 whole entry): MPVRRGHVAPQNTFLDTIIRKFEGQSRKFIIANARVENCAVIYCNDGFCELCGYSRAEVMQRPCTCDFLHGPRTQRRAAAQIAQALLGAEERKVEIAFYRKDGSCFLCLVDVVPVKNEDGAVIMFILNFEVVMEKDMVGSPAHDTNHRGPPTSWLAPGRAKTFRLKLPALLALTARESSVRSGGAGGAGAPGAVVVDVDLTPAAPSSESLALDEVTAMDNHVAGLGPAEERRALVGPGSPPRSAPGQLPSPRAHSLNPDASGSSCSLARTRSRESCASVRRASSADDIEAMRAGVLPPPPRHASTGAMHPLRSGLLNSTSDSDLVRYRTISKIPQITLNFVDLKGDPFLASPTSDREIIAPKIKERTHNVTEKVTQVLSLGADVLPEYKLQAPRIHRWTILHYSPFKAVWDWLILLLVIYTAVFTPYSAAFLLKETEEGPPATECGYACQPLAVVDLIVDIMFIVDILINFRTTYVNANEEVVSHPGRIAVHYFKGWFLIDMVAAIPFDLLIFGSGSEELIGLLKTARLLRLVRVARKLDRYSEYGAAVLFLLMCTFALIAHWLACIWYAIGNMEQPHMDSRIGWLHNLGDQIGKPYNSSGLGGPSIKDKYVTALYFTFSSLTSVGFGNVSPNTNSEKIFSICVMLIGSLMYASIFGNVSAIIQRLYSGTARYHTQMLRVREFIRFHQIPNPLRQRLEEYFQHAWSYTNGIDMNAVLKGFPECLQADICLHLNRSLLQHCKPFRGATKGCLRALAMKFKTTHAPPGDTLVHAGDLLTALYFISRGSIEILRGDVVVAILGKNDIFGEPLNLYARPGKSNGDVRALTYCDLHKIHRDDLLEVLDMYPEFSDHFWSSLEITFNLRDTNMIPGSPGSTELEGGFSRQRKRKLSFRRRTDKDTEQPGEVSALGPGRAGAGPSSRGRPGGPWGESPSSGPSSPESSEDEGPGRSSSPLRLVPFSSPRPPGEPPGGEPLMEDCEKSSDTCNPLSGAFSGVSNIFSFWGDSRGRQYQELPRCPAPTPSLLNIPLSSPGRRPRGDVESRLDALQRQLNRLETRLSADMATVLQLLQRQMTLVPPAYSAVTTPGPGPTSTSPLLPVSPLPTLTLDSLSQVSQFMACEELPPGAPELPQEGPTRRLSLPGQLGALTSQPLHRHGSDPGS

As to `COCCN1C[C@@H](NC(=O)Nc2c(C)c(-c3cnc4c(cnn4C)c3)nn2-c2ccccc2)[C@H](c2ccnc(F)c2)O1` (racemic) [Compound I-40], the pIC50 on human TrkA (setting [2]) is 8.80. In data set [1], the clearance stood at 2.82 mL/min/kg.
Take `CCN1CCC(NC(=O)c2ccc(-c3nn(-c4ccccc4)c(NC(=O)N[C@@H]4CC(CCOC)O[C@H]4c4ccccc4)c3C)cc2)CC1` (stereo partly shown) [Compound I-19]: the pIC50 at human TrkA (setting [3]) is greater than 7.00. In addition, in data set [1], the clearance came to 15.6 mL/min/kg.
Take `COCC[C@@H]1C[C@@H](NC(=O)Nc2c(C)c(-c3cnc4c(c3)nnn4C)nn2-c2ccccc2)[C@H](c2ccnc(F)c2)O1` [Compound I-275]: the pIC50 at human TrkA (setting [2]) is 8.52. Besides, in data set [1], the clearance was found to be 3.73 mL/min/kg.
As for `COCCC1C[C@@H](NC(=O)Nc2c(C)c(-c3cnn(C)c3)nn2-c2ccccc2)[C@H](c2ccccc2)O1` (stereo partly shown) [Compound I-6], the inhibition at 5 mol/L on hERG channel (IKr) worked out at 8.9%. In addition, the pIC50 on human TrkA (setting [3]) is greater than 7.00.
`COCCN1C[C@@H](NC(=O)Nc2c(C)c(-c3cnc(OC)nc3)nn2-c2ccccc2)[C@H](c2cnc(F)c(F)c2)O1` (racemic) [Compound I-57]: the pIC50 at human TrkA (setting [2]) was 8.66. Also, in data set [1], the clearance is 7.93 mL/min/kg.
As for `COCC[C@@H]1O[C@@H](NC(=O)Nc2c(C)c(-c3cnn(C)c3)nn2-c2ccccc2)[C@H](c2ccccc2)O1` [Compound I-7], the inhibition at 5 mol/L on hERG channel (IKr) was found to be 4.2%. Further, the pIC50 on human TrkA (setting [2]) was 8.21.
With `COCCC1C[C@@H](NC(=O)Nc2c(C)c(-c3cnc(C)nc3)nn2-c2ccccc2)[C@H](c2ccccc2)O1` (stereo partly shown) [Compound I-12], the inhibition at 5 mol/L on hERG channel (IKr) was found to be 17.6%. For the same molecule, the pIC50 on human TrkA (setting [3]) was greater than 7.00. Also, in data set [1], the clearance is 13.6 mL/min/kg.
Consider `COCCN1C[C@@H](NC(=O)Nc2c(C)c(-c3cnn(C)c3)nn2-c2ccccc2)[C@H](c2ccccc2)O1` (racemic) [Compound I-4], for which the inhibition at 5 mol/L on hERG channel (IKr) stood at 14.1%. Besides, on human TrkA (setting [3]), the pIC50 was greater than 7.00.
In the case of `COCCN1C[C@@H](NC(=O)Nc2c(C)c(-c3cnc4c(c3)nnn4C)nn2-c2ccccc2)[C@H](c2ccnc(F)c2)O1` (racemic) [Compound I-90], at human TrkA (setting [4]), the pIC50 was greater than 7.00. Also, in data set [1], the clearance worked out at 6.35 mL/min/kg.
`COCCN1C[C@@H](NC(=O)Nc2c(C)c(-c3cnc(N4CCN(C)CC4)nc3)nn2-c2ccccc2)[C@H](c2cc(F)nc(F)c2)O1` (racemic) [Compound I-380]: the pIC50 at human TrkA (setting [5]) was greater than 7.00.
On the same count and under the same terms, then `COCCN1C[C@@H](NC(=O)Nc2c(C)c(-c3ccc4c(c3)NC(=O)CO4)nn2-c2ccccc2)[C@H](c2ccnc(F)c2)O1` (racemic) [Compound I-364], with greater than 7.00.
In the case of `COCCN1C[C@@H](NC(=O)Nc2c(C)c(C3=CCN(C(=O)CO)CC3)nn2-c2ccccc2)[C@H](c2ccc(F)c(F)c2)O1` (racemic) [Compound I-53], on human TrkA (setting [4]), the pIC50 was greater than 7.00.
The same measure, in the same setting: then `COCCN1C[C@@H](NC(=O)Nc2c(C)c(-c3cnn(C)c3)nn2-c2ccccc2)[C@H](c2cccc(F)c2)O1` (racemic) [Compound I-139], with greater than 7.00.
With `COCCN1C[C@@H](NC(=O)Nc2c(C)c(-c3ccc(N=S(C)(C)=O)nc3)nn2-c2ccccc2)[C@H](c2ccc(F)c(F)c2)O1` [Compound I-186], at human TrkA (setting [6]), the pIC50 was greater than 7.00.
Regarding `COCCC1C[C@@H](NC(=O)Nc2c(C)c(-c3ccc4c(cnn4C)c3)nn2-c2ccccc2)[C@H](c2ccccc2)O1` (stereo partly shown) [Compound I-11], the pIC50 at human TrkA (setting [3]) is greater than 7.00.
`COCCN1C[C@@H](NC(=O)Nc2c(C)c(N3Cc4cnn(C)c4C3)nn2-c2ccccc2)[C@H](c2ccnc(F)c2)O1` (racemic) [Compound I-244]: the pIC50 on human TrkA (setting [2]) was 7.77.
For the molecule `COCC[C@@H]1C[C@@H](NC(=O)Nc2c(C)c(-c3cnc4c(c3)c(=O)n(C)n4C)nn2-c2ccccc2)[C@H](c2ccc(F)c(F)c2)O1` (racemic) [Compound I-215], the pIC50 on human TrkA (setting [6]) is greater than 7.00.
As to `COCCN1C[C@@H](NC(=O)Nc2c(C)c(OCc3ccccn3)nn2-c2ccccc2)[C@H](c2ccnc(F)c2)O1` (racemic) [Compound I-454], the pIC50 on human TrkA (setting [5]) was greater than 7.00.
Consider `CCN1C[C@@H](NC(=O)Nc2c(C)c(OCC(=O)NCCN(C)C)nn2-c2ccccc2)[C@H](c2ccc(F)c(F)c2)O1` (racemic) [Compound I-650], for which the pIC50 on human TrkA (Table 157, human TrkA inhibition, read-out: IC50) is 6.00 to 7.00.
Consider `Cc1c(OCC2CCNCC2)nn(-c2ccccc2)c1NC(=O)N[C@@H]1CN(CC(F)F)O[C@H]1c1ccc(F)c(F)c1` (racemic) [Compound I-561], for which the pIC50 on human TrkA (Table 156, human TrkA inhibition, read-out: IC50) is greater than 7.00.
For the molecule `COCCC1C[C@@H](NC(=O)Nc2c(C)c(-c3cnc(COC(=O)C(C)(C)C)nc3)nn2-c2ccccc2)[C@H](c2ccccc2)O1` (stereo partly shown) [Compound I-294], at human TrkA (setting [6]), the pIC50 was greater than 7.00.
In the case of `COCCN1C[C@@H](NC(=O)Nc2c(C)c(-c3cnc(-c4cnoc4)nc3)nn2-c2ccccc2)[C@H](c2ccnc(F)c2)O1` (racemic) [Compound I-476], the pIC50 on human TrkA (setting [5]) was greater than 7.00.
As to `COCCC1C[C@@H](NC(=O)Nc2c(C)c(-c3cnc4c(cnn4C)c3)nn2-c2ccccc2)[C@H](c2ccccc2)O1` (stereo partly shown) [Compound I-98], the pIC50 on human TrkA (setting [4]) is greater than 7.00.
For the molecule `COCCN1C[C@@H](NC(=O)Nc2c(C)c(-c3cnc4c(c3)nc(C#N)n4C)nn2-c2ccccc2)[C@H](c2ccc(F)c(F)c2)O1` [Compound I-222], at human TrkA (setting [6]), the pIC50 was greater than 7.00.
